The results in this text go back to patent US20260055398A1, “IMPROVED POLYMER DEGRADING ENZYMES” (CAMBRIDGE ENTERPRISE LIMITED, priority 2022, published 2026).

Holding throughout (assay type): biochemical
The test system of one test is N20O1. Put plainly: Kinetics of p-NP acyl ester hydrolysis by N20O1. As to conditions: 50 mM Tris-HCl pH 8.0, 0.3% (v/v) triton X-100, 22° C. The protocol: The activity of all esterase hits was determined via hydrolysis of p-nitrophenol (p-NP) carboxylesterase by monitoring the release of p-nitrophenol. The amount of p-nitrophenol released was quantified by absorbance at 405 nm (εpNP=17,000 M−1.cm−1) using a Spectramax 190 microplate reader (Molecular Devices). Unless otherwise indicated, the measurements were performed at 22° C. in triplicate using 96-well plates with a final assay volume of 100 μL in 50 mM Tris-HCl pH 8.0 and 0.3% (v/v) triton X-100. The substrate specificity was investigated by measuring the hydrolysis of the following p-NP-fatty acyl esters: butyrate (C4), hexanoate (C6 from TCI Chemicals, H0484), octanoate (C8), decanoate (C10), dodecanoate (C12), myristate (C14) and palmitate (C16). The kinetic parameters for each substrate were obtained by non-linear regression of the data using the Michaelis-Menten equation: V=Vmax*[S]/(Km+[S]), where V is the rate, Vmax is the maximum rate achieved by the reaction, S is the substrate concentration, and Km is the Michaelis-Menten constant. The effect of the pH was evaluated by measuring the enzyme activity at pH 4.0 to 11.0 in 50 mM of the following buffers containing 0.3% (v/v) triton X-100: sodium citrate at pH 4.0, pH 5.0 and 6.0; phosphate at pH 6.0, 7.0, 8.0; Tris-HCl at pH 7.0, 8.0 and 9.0; N-cyclohexyl-3-aminopropanesulfonic acid (CAPS) at pH 9.5, 10.0, 11.0. […]

In the next test the test system is RR11O2. Put plainly: Kinetics of p-NP acyl ester hydrolysis by RR11O2. As to conditions: 50 mM Tris-HCl pH 8.0, 0.3% (v/v) triton X-100, 22° C. Here is the method: (B) Detail of RR11O2's cavity (in blue) and the catalytic triad (in cyan) S149, D311 and H308. (C) The catalytic efficiencies of RR11O2 measured against p-NP acyl esters [acetate (C2), butyrate (C4), hexanoate (C6), octanoate (C8), decanoate (C10), dodecanoate (C12), myristate (C14) and palmitate (C16)]. The reactions were performed in buffer containing 50 mM Tris-HCl PH 8.0 and 0.3% (v/v) Triton X-100 at 22° C.
The activity of all esterase hits was determined via hydrolysis of p-nitrophenol (p-NP) carboxylesterase by monitoring the release of p-nitrophenol. The amount of p-nitrophenol released was quantified by absorbance at 405 nm (εpNP=17,000 M−1.cm−1) using a Spectramax 190 microplate reader (Molecular Devices). Unless otherwise indicated, the measurements were performed at 22° C. in triplicate using 96-well plates with a final assay volume of 100 μL in 50 mM Tris-HCl pH 8.0 and 0.3% (v/v) triton X-100. The substrate specificity was investigated by measuring the hydrolysis of the following p-NP-fatty acyl esters: butyrate (C4), hexanoate (C6 from TCI Chemicals, H0484), octanoate (C8), decanoate (C10), dodecanoate (C12), myristate (C14) and palmitate (C16). The kinetic parameters for each substrate were obtained by non-linear regression of the data using the Michaelis-Menten equation: V=Vmax*[S]/(Km+[S]), where V is the rate, Vmax is the maximum rate achieved by the reaction, S is the substrate concentration, and Km is the Michaelis-Menten constant. The effect of the pH was evaluated by measuring the enzyme activity at pH 4.0 to 11.0 in 50 mM of the following buffers containing 0.3% (v/v) triton X-100: sodium citrate at pH 4.0, pH 5.0 and 6.0; phosphate at pH 6.0, 7.0, 8.0; Tris-HCl at pH 7.0, 8.0 and 9.0; N-cyclohexyl-3-aminopropanesulfonic acid (CAPS) at pH 9.5, 10.0, 11.0.
The enzyme activity of purified RR11O2, Bla-CI5En2 and IsPETase was tested against different p-NP acyl esters [acetate (C2), butyrate (C4), hexanoate (C6), octanoate (C8), decanoate (C10), dodecanoate (C12) and myristate (C14)]. The final enzyme concentration of the enzymes in the reaction depended on the p-NP acyl ester used as substrate. Kinetics were measured at enzyme concentrations of RR11O2, Bla-CI5En2 and IsPETase between 31.25 μM to 23.2 μM, 2.5 nM to 50 nM, and 50 nM to 4.8 μM, respectively. The p-NP acyl ester substrates were used in a concentration range between 0 and 4 mM. The kinetic parameters Vmax and Km were calculated using Kaleidagraph by non-linear lest square fits of initial rates to the Michaelis-Menten equation. […] The released p-nitrophenol was monitored spectro-photometrically at 405 nm (εpNP=18.300 M−1.cm−1) by taking time points in 20 second intervals in a SpectraMax® M3 Microplate Reader (Molecular Devices).

Test [1] is described as follows: Enzymatic degradation of PET (nanoparticles, film), HPLC of released TPA and MHET. The text has this:
(A) Sequence network of currently known PETases and a novel esterase metagenomic-derived, RR11O2. […] Grey nodes represent sequences extracted from MGnify and NCBI. Red node represents RR11O2, blue nodes represent known PETases, green and orange nodes represent reported cutinases and esterases showing PET activity, respectively, and light blue nodes represent described polyester degrading enzymes in the literature. To putatively characterise sequence clusters, the identification of PETases, cutinases, esterases and RR11O2 in the network helped to define the potential clusters. The cluster of RR11O2, CI5En2 and PETase are written in grey. (B) PET hydrolases catalyze the depolymerization of poly(ethylene terephthalate) (PET) to bis(2-hydroxyethyl) terephthalate (BHET), mono(2-hydroxyethyl)-terephthalic (MHET) or terephthalic acid (TPA) and ethylene glycol (EG). During characterizations via high-performance liquid chromatography (HPLC) MHET and TPA have been identified as main products. […] Absorbance at 250 nm was monitored.
(A) Enrichment of variants with higher activity compared to wildtype after sorting the ep-PCR library of CI5En2. […] Amount of the released monomers TPA and MHET was determined via HPLC and corresponding standard curves for TPA and MHET. […]
HPLC analysis of the products released after one week incubation at 30° C. using 6 μM pExp-bla-CI5En2-WT. Absorbance at 250 nm was monitored which detects released TPA and MHET.
To detect the release of TPA, MHET and BHET in the presence of various enzymes, aliquots were taken from reaction mixtures, turnover was stopped by addition of an equal volume of methanol containing 0.5% formic acid, centrifuged (16,100×g, 15 min) and analysed by HPLC (1260 Infinity II, Agilent; Nucleodur C18 analytical EC standard column (5 μm, 4×125 mm, Macherey-Nagel, Germany). As the mobile phase mixtures of buffer A (0.1% formic acid in distilled water) and buffer C (distilled water), as well as buffer D (acetonitrile) were used at a flow rate of 1 mL/min. Buffer A was kept at 20% for the whole run. […]

Usually Km stands for the substrate concentration at which the rate is half of its maximum. What is called kcat is the maximal rate divided by the concentration of active sites. `CC(=O)Oc1ccc([N+](=O)[O-])cc1` [Substrate 3a, p-NP acetate]: the Michaelis-Menten constant (Km) in the test on N20O1 amounted to 3800 µM; in the test with RR11O2, 30000 µM. Further, the kcat with N20O1 was found to be 520 s⁻¹; in the test on RR11O2 it was 390 s⁻¹.

Take `CCCC(=O)Oc1ccc([N+](=O)[O-])cc1` [Substrate 3b, p-NP butyrate]: in the test with N20O1, the Km stood at 2200 µM and the kcat was 630 s⁻¹. Moreover, in the test on RR11O2, the Km was found to be 2200 µM and the turnover number (kcat) is 46 s⁻¹.

On to `CCCCCC(=O)Oc1ccc([N+](=O)[O-])cc1` [Substrate 3c, p-NP hexanoate], for which, in the test with N20O1, the Km is 1400 µM and the kcat was 250 s⁻¹. In addition, in the test on RR11O2, the Km was 720 µM and the turnover number (kcat) worked out at 35 s⁻¹.

In the case of `CCCCCCCC(=O)Oc1ccc([N+](=O)[O-])cc1` [Substrate 3d, p-NP octanoate], in the test with N20O1, the Michaelis constant (Km) was 1100 µM and the kcat is 370 s⁻¹. In the test with RR11O2, the Michaelis-Menten constant (Km) came to 370 µM and the kcat is 11 s⁻¹.

Turning to `CCCCCCCCCC(=O)Oc1ccc([N+](=O)[O-])cc1` [Substrate 3e, p-NP decanoate], in the test with N20O1, the Michaelis constant (Km) amounted to 1500 µM and the kcat was determined as 31 s⁻¹. Besides, in the test on RR11O2, the Km is 2000 µM and the turnover number (kcat) amounted to 5.4 s⁻¹.

`CCCCCCCCCCCC(=O)Oc1ccc([N+](=O)[O-])cc1` [Substrate 3f, p-NP dodecanoate]: in the test on N20O1, the Km was found to be 2000 µM and the kcat worked out at 0.5 s⁻¹. For the same molecule, in the test on RR11O2, the Michaelis constant (Km) was found to be 2800 µM and the kcat was determined as 0.78 s⁻¹.

Take `CCCCCCCCCCCCCC(=O)Oc1ccc([N+](=O)[O-])cc1` [Substrate 3g, p-NP myristate]: in the test on N20O1, the Km is 4400 µM and the turnover number (kcat) was found to be 0.042 s⁻¹. Besides, in the test with RR11O2, the Km was 1500 µM and the kcat turned out to be 0.039 s⁻¹.

Turning to `CCCCCCCCCCCCCCCC(=O)Oc1ccc([N+](=O)[O-])cc1` [Substrate 3h, p-NP palmitate], in the test on N20O1, the Michaelis constant (Km) stood at 4800 µM and the kcat was found to be 0.016 s⁻¹. In the test with RR11O2, the Km was 7400 µM and the turnover number (kcat) amounted to 0.017 s⁻¹.

B1: RR11O2: metagenomic-derived esterase with promiscuous activity on PET; amino acid SEQ ID NO. 4; PDB 6ZZV (protein)
chain: MSENMNRPLDYSQKANWYQIPEVTKEFDTFYVYATEYILSSMEEGAPDYADMENAEMLEGAAAEYMLHATAYADSTNVFMPYYRQVGLRYAGVVWKRDGIFDASVAGMPYGDIVAALDYYFEHYNNGRPFIIAGHSQGSAIIKMVLKKYFVEHPDYYKRMIAAYPIGYAFTKDEFKTYPHMKFATGECDTGVIITWNTEGPKNREVNADTCVLQPGSMSINPLNWKLDDTYAPASMNLGSLFPNKDTGKLEIQDLGADAQVFPDRGVVVTHAMGEEMTEETAKVAAEFFGPDGRHGEDYVLFYCNIKDNVAKRISAYMANRK
modifications: RR1102
As to B1, the “promiscuous activity on PET” value in test [1] is recorded as “exhibits promiscuous activity on PET”.
